Experiments:
anti-MT mAb = test: indirect competitive ELISA (icELISA) with anti-MT monoclonal antibody; format: binding, mouse; conditions: for CR (%): CR = (IC50 of MT/IC50 of competition analogue) x 100%
Protocol: (§1) Checkerboard titration was used for the determination of optimum coating antigen and antibody concentrations in icELISA. A 96-well microplate was coated with 100 μL/well MT-CMO-OVA (0.1 μg/mL, in 0.05 M CBS, pH 9.6) and incubated overnight at 4 °C. The wells were washed three times with washing buffer (0.01 M, PBS, containing 0.2% Tween 20) to remove free coating antigen and blocked with 220 μL blocking buffer (0.05 M, 0.2% Gelatin in CBS) at 37 °C for 2 h.
After washing, 50 μL of different concentrations of standard and 50 μL of antibody were added to wells and incubated at 37 °C for 30 min. Following another wash to remove unbound antibody and standards, 100 μL of 1:3000 diluted HRP-labelled goat anti-mouse IgG was added to each well and incubated for 30 min at 37 °C. After washing three times, 100 μL of substrate was added and incubated for 15 min at 37 °C. The enzymatic reaction was stopped with 50 μL sulfuric acid (2 M) per well. A microplate reader was used to determine the absorbance of each well at 450 nm.
Three immunoassay parameters (methanol content, ionic strength and pH of the solvent) were optimized to improve both the stability and sensitivity of icELISA. The criteria used to evaluate immunoassay performance were half inhibition concentration (IC50), maximum absorbance (Amax) and Amax/IC50. To optimize the methanol content in the solvent, PBS was mixed with different contents of methanol (0%, 5%, 10% and 20%). For ionic strength optimization, different concentrations of PBS (5, 10, 20, and 40 mM) were used. Finally, for solvent pH optimization, PBS was adjusted to different pH values (4.7–9.6).
In this study, mAb specificity was investigated by cross-reactivity (CR). Competition analogues (testosterone, nor-testosterone, estradiol, estriol, progesterone, epitestosterone, dihydrotestosterone and dexamethasone) were prepared in methanol at 1 mg/mL. A series of standard solutions (0, 1, 2, 5, 10, 20, 50 and 100 ng/mL) were diluted with optimized PBS and subjected to icELISA. CR values were calculated with the following formula: CR (%) = (IC50 of MT/IC50 of competition analogue) × 100%

[1] = tested on: antisera (mouse No. 16), anti-MT activity; test: icELISA screening of mouse antiserum for anti-MT activity; format: binding; conditions: mouse No. 16, after two subsequent injections, MT in PBS
Protocol: Female BALB/c mice (8–10 weeks old) were injected subcutaneously at multiple sites with the immunogen MT-CMO-BSA (100 μg in 0.1 mL saline) emulsified with an equal volume of Freund’s complete adjuvant. For subsequent boosters administered at one-month intervals, Freund’s incomplete adjuvant was used. Antisera were collected following the third booster immunization and screened for anti-MT activity by icELISA [27]. The mouse with the highest anti-MT activity was administered the immunogen (20 μg in 0.2 mL saline) by intraperitoneal injection and sacrificed three days later for cell fusion.
as §1
After washing, 50 μL of different concentrations of standard and 50 μL of antibody were added to wells and incubated at 37 °C for 30 min. […] A microplate reader was used to determine the absorbance of each well at 450 nm.

[2] = optimized icELISA, PBS 10 mM, pH 7.4

Row | SMILES | CR (%) (anti-MT mAb) | IC50 (anti-MT mAb; [2]) | other results
1 | C[C@]12CC[C@@H]3c4ccc(O)cc4CC[C@H]3[C@@H]1CC[C@@H]2O [Estradiol] | 0.52% | 50 ng/mL | 
2 | C[C@]12CC[C@@H]3c4ccc(O)cc4CC[C@H]3[C@@H]1C[C@@H](O)[C@@H]2O [Estriol] | <0.26% | >100 ng/mL | 
3 | C[C@]12CCC(=O)C[C@@H]1CC[C@@H]1[C@@H]2CC[C@]2(C)[C@@H](O)CC[C@@H]12 [Dihydrotestosterone] | <0.26% | >100 ng/mL | 
4 | CC(=O)[C@H]1CC[C@H]2[C@@H]3CCC4=CC(=O)CC[C@]4(C)[C@H]3CC[C@]12C [Progesterone] | <0.26% | >100 ng/mL | 
5 | C[C@@H]1C[C@H]2[C@@H]3CCC4=CC(=O)C=C[C@]4(C)[C@@]3(F)[C@@H](O)C[C@]2(C)[C@@]1(O)C(=O)CO [Dexamethasone] | <0.26% | >100 ng/mL | 
6 | C[C@]12CC[C@H]3[C@@H](CCC4=CC(=O)CC[C@@H]43)[C@@H]1CC[C@@H]2O [Nor-testosterone] | 1.04% | 25 ng/mL | 
7 | C[C@]12CC[C@H]3[C@@H](CCC4=CC(=O)CC[C@@]43C)[C@@H]1CC[C@@H]2O [Testosterone] |  | 12 ng/mL | 
8 | C[C@]12CC[C@H]3[C@@H](CCC4=CC(=O)CC[C@@]43C)[C@@H]1CC[C@H]2O [Epitestosterone] | <0.26% | >100 ng/mL | 
9 | C[C@]12CCC(=O)C=C1CC[C@@H]1[C@@H]2CC[C@@]2(C)[C@H]1CC[C@]2(C)O [Methyltestosterone] | 100% | 0.26 ng/mL | IC50 of antiserum [1]: approximately 3 ng/mL; IC50 (anti-MT mAb; ionic strength (PBS) 5 mM): 0.68 ± 0.017 ng/mL; IC50 (anti-MT mAb; ionic strength (PBS) 10 mM): 0.398 ± 0.024 ng/mL; IC50 (anti-MT mAb; ionic strength (PBS) 20 mM): 0.565 ± 0.024 ng/mL; IC50 (anti-MT mAb; ionic strength (PBS) 40 mM): 0.504 ± 0.092 ng/mL; IC50 (anti-MT mAb; methanol content 0%): 0.418 ± 0.02 ng/mL; IC50 (anti-MT mAb; methanol content 5%): 0.567 ± 0.023 ng/mL; IC50 (anti-MT mAb; methanol content 10%): 0.418 ± 0.05 ng/mL; IC50 (anti-MT mAb; methanol content 20%): 0.626 ± 0.009 ng/mL; IC50 (anti-MT mAb; pH 4.7): 0.456 ng/mL; IC50 (anti-MT mAb; pH 6.0): 0.723 ± 0.038 ng/mL; IC50 (anti-MT mAb; pH 7.4): 0.455 ng/mL; IC50 (anti-MT mAb; pH 8.6): 0.577 ± 0.026 ng/mL; IC50 (anti-MT mAb; pH 9.6): 0.714 ± 0.007 ng/mL; IC50 of purified mAb (anti-MT mAb; purified mAb from hybridoma 1E12, before optimization): 0.4 ng/mL

Reference: paper PMC4481955, “Sensitive, Fast, and Specific Immunoassays for Methyltestosterone Detection” (Sensors (Basel, Switzerland), 2015)
